Laboratory results taken from patent US7205394B2, “Clathrate of azithromycin hydrate with 1,2-propyleneglycol, method for the manufacture thereof and pharmaceutical composition comprising same” (Hanmi Pharm. Co., Ltd., priority 2001, dated 2007).
Read-outs that look alike come from different tables or passages of the source.

How the values were obtained:
rat = conditions: oral administration in rat; cited from earlier work
[1] = prior art forms, background section, cited from earlier work
[2] = Hygroscopic properties: exposure to relative humidity, water content by Karl Fischer method; assay type: physicochemical; conditions: for Found-Calculated (Difference, %) / Range of Difference (%) / Water content, relative humidity 25% / Water content, relative humidity 50% / Water content, relative humidity 75% / Water content, relative humidity 100%: 7 days; for Found-Calculated (Difference, %) / Range of Difference (%): relative humidity 25-100%; for Found-Calculated (Difference, %) (number in parenthesis) / Range of Difference (%) (number in parenthesis): after 3 days at the corresponding relative humidity; for Water content at onset: before exposure, 7-day series; for Water content at onset / Water content, relative humidity 25% / Water content, relative humidity 50% / Water content, relative humidity 75% / Water content, relative humidity 100%: Karl Fischer; for Water content at onset (number in parenthesis): parenthesis = 3-day series; for Water content, relative humidity 50% (number in parenthesis) / Water content, relative humidity 75% (number in parenthesis) / Water content, relative humidity 100% (number in parenthesis) / Water content, relative humidity 25% (33%) (number in parenthesis): after 3 days; for Water content, relative humidity 25% (33%) (number in parenthesis): relative humidity (33%); for Calculated water content (%): theoretical, for (1) based on m = 1.5 and n = 0.30 in formula (I)
Procedure: Also, the hygroscopic properties of each of the compound obtained in Example 1 (1), azithromycin dihydrate (2), monohydrate (3), and anhydride (4) were determined by exposing each sample to a relative humidity of each 25%, 50%, […] thereof by the Karl Fischer method.

CC(O)CO (centres unmarked) [1,2-propyleneglycol]
LD50 (rat): 25 mL/kg

CC[C@H]1OC(=O)[C@H](C)[C@@H](O[C@H]2C[C@@](C)(OC)[C@@H](O)[C@H](C)O2)[C@H](C)[C@@H](O[C@@H]2O[C@H](C)C[C@H](N(C)C)[C@H]2O)[C@](C)(O)C[C@@H](C)CN(C)[C@H](C)[C@@H](O)[C@]1(C)O [(2), azithromycin dihydrate]
Hygroscopic property (in words) ([1]; dihydrate): less hydroscopic than the monohydrate | Found-Calculated (Difference, %) ([2]; dihydrate): −0.4~+1.51% | Range of Difference (%) ([2]; dihydrate): 1.91% | Found-Calculated (Difference, %) (number in parenthesis) ([2]; dihydrate): (−2.1~+0.6) % | Range of Difference (%) (number in parenthesis) ([2]; dihydrate): 2.7% | Water content at onset ([2]; dihydrate): 4.58% | Water content at onset (number in parenthesis) ([2]; dihydrate): 4.1% | Water content, relative humidity 25% ([2]; dihydrate): 4.20% | Water content, relative humidity 50% ([2]; dihydrate): 4.25% | Water content, relative humidity 50% (number in parenthesis) ([2]; dihydrate): 4.6% | Water content, relative humidity 75% ([2]; dihydrate): 5.10% | Water content, relative humidity 75% (number in parenthesis) ([2]; dihydrate): 4.6% | Water content, relative humidity 100% ([2]; dihydrate): 6.11% | Water content, relative humidity 100% (number in parenthesis) ([2]; dihydrate): 5.2% | Water content, relative humidity 25% (33%) (number in parenthesis) ([2]; dihydrate): 2.5% | Calculated water content (%) ([2]; dihydrate): 4.60%

CC[C@H]1OC(=O)[C@H](C)[C@@H](O[C@H]2C[C@@](C)(OC)[C@@H](O)[C@H](C)O2)[C@H](C)[C@@H](O[C@@H]2O[C@H](C)C[C@H](N(C)C)[C@H]2O)[C@](C)(O)C[C@@H](C)CN(C)[C@H](C)[C@@H](O)[C@]1(C)O [(3), azithromycin monohydrate]
Found-Calculated (Difference, %) ([2]; monohydrate): +1~+3.94% | Range of Difference (%) ([2]; monohydrate): 3.94% | Found-Calculated (Difference, %) (number in parenthesis) ([2]; monohydrate): (−0.05~+4.84) % | Range of Difference (%) (number in parenthesis) ([2]; monohydrate): 4.9% | Water content at onset ([2]; monohydrate): 2.30% | Water content at onset (number in parenthesis) ([2]; monohydrate): 3.2% | Water content, relative humidity 25% ([2]; monohydrate): 3.35% | Water content, relative humidity 50% ([2]; monohydrate): 5.13% | Water content, relative humidity 50% (number in parenthesis) ([2]; monohydrate): 5.6% | Water content, relative humidity 75% ([2]; monohydrate): 5.41% | Water content, relative humidity 75% (number in parenthesis) ([2]; monohydrate): 6.6% | Water content, relative humidity 100% ([2]; monohydrate): 6.29% | Water content, relative humidity 100% (number in parenthesis) ([2]; monohydrate): 7.2% | Water content, relative humidity 25% (33%) (number in parenthesis) ([2]; monohydrate): 2.3% | Calculated water content (%) ([2]; monohydrate): 2.35%

CC[C@H]1OC(=O)[C@H](C)[C@@H](O[C@H]2C[C@@](C)(OC)[C@@H](O)[C@H](C)O2)[C@H](C)[C@@H](O[C@@H]2O[C@H](C)C[C@H](N(C)C)[C@H]2O)C(C)(O)C[C@H](C)CN(C)[C@H](C)[C@@H](O)[C@]1(C)O (some centres unmarked) [(4), 9-deoxo-9a-aza-9a-methyl-9a-homoerythromycin A]
Hygroscopic property (in words) [1]: highly hygroscopic | Found-Calculated (Difference, %) [2]: +1.11~+7.00% | Range of Difference (%) [2]: 7.00% | Water content at onset [2]: 0.22% | Water content, relative humidity 25% [2]: 1.11% | Water content, relative humidity 50% [2]: 2.85% | Water content, relative humidity 75% [2]: 4.33% | Water content, relative humidity 100% [2]: 7.00% | Calculated water content (%) [2]: 0.00%
